# Reference: ChEMBL document CHEMBL1201862, “PubChem BioAssay data set” (2004)
# The source made the active and inactive calls.
# What was measured:
# [1] = HEK293 cell cytotoxicity, dose response, cytotoxicity control, plate reader, cherry-picked samples (AID 743446); format: functional, cell-based
# [2] = HepG2 cell cytotoxicity, dose response, cytotoxicity control, plate reader, cherry-pick, antagonist series (AID 743416); format: functional, cell-based
# fMet-Leu-Phe receptor = biological target: T1, fMet-Leu-Phe receptor (Homo sapiens, UniProt P21462); assay: FPR ligands, dose response (AID 519); format: functional
# T1 sequence (P21462 whole entry): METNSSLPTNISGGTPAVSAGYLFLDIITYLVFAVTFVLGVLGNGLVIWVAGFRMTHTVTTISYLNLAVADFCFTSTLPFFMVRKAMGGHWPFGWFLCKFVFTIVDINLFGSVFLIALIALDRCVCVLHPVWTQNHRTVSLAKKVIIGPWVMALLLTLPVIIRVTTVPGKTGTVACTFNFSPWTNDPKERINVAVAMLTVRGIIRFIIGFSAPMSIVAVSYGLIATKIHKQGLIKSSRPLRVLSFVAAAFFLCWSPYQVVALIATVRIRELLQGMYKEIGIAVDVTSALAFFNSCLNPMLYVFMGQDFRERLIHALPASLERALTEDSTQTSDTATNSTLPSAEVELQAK
# [3] = inhibitors of PGC1a acetylation in cells, dose response, cell-based, cherry-picked samples (AID 720514); format: functional;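 further: potency may reflect raised or lowered acetylation signal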
# [4] = cytotoxicity in OVCAR8 ovarian cancer cells, dose response, PAX8 project, cell-based, plate reader, dry powder samples (AID 743197); format: functional; conditions: OVCAR-8
# Paired box protein Pax-8 = Paired box protein Pax-8 (Homo sapiens, UniProt Q06710); assay: inhibitors of PAX8-driven TPO luciferase reporter, dose response, RMG-I cells, cherry-pick (AID 687027); format: functional, cell-based;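 further: luciferase reporter driven by Pax8 target thyroperoxidase promoter measured by SteadyGlo luminescence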
# Chain of Paired box protein Pax-8 (Q06710 whole entry): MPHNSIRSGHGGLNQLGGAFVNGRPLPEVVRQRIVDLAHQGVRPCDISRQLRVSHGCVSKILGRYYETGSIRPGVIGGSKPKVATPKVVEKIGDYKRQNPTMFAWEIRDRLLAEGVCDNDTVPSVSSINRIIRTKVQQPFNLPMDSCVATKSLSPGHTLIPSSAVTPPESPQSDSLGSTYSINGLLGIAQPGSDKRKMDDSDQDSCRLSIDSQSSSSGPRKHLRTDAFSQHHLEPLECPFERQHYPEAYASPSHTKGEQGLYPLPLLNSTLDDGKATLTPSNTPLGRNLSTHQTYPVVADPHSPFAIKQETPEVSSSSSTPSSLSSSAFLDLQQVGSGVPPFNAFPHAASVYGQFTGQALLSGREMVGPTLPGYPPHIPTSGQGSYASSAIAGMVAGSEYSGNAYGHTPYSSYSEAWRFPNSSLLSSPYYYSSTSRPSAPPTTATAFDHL
# [5] = non-specific cell cytotoxicity, dose response, cytotoxicity control for PAX8 inhibitor project, plate reader, dry powder samples (AID 743021); format: functional, cell-based
# Mu-type opioid receptor = Mu-type opioid receptor (Homo sapiens, UniProt P35372); format: functional, cell-based;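 further: U2OS cells with beta-arrestin recruitment to OPRM1 by beta-gal complementation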
# Chain of Mu-type opioid receptor (P35372 whole entry): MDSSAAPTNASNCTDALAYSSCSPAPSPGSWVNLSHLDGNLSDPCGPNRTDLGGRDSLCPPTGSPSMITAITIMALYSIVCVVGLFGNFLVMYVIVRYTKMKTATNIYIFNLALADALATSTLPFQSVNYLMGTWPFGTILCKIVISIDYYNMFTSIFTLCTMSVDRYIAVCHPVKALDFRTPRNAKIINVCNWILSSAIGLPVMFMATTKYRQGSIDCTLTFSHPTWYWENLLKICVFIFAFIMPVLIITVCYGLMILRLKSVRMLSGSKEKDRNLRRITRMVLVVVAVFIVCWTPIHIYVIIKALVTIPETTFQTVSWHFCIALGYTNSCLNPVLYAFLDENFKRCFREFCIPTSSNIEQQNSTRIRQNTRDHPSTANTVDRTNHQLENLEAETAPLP
# [6] = biological target: 5-hydroxytryptamine receptor 2A (Mus musculus, UniProt P35363); format: functional, cell-based;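 further: CHO-K1 cells with tagged receptor and beta-arrestin; agonist potency measured as compound-induced activation of the receptor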
# [7] = THP-1 cell cytotoxicity, dose response, cytotoxicity control for Vif-APOBEC3G degradation inhibitor project, THP-1 cells (AID 1117359); format: functional; conditions: Human immunodeficiency virus 1, THP-1
# [8] = LGR2 antagonists, dose response, cell-based, HEK293, CRE-luciferase reporter, cherry pick, set 2 (AID 743343); format: functional;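 further: transfected cells were stimulated with diluted bursicon conditioned medium after compound addition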
# [9] = MC4R antagonists, dose response, counter-screen for LGR2 antagonist project, cell-based, plate reader, cherry pick (AID 743444); format: functional;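 further: transfected HEK 293 cells stimulated with alpha-MSH peptide; potency of inhibitors of the alpha-MSH evoked signal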
# [10] = Artemis endonuclease inhibitor potency, dose response, biochemical, fluorescence intensity (AID 720701); format: functional;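 further: Artemis endonuclease enzyme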
# [11] = biological target: T2, Oxysterols receptor LXR-beta (Homo sapiens, UniProt P55055); format: functional, cell-based;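 further: agonist activity at LXR measured by a cell-based luminescence readout across a dose range, run as a counterscreen for daf-12 agonists; HEK293 cells with Gal4-LXR fusion and GAL4-driven luciferase reporter; potency for activation of Gal4-LXR reporter so compounds are agonists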
# T2 sequence (P55055 whole entry): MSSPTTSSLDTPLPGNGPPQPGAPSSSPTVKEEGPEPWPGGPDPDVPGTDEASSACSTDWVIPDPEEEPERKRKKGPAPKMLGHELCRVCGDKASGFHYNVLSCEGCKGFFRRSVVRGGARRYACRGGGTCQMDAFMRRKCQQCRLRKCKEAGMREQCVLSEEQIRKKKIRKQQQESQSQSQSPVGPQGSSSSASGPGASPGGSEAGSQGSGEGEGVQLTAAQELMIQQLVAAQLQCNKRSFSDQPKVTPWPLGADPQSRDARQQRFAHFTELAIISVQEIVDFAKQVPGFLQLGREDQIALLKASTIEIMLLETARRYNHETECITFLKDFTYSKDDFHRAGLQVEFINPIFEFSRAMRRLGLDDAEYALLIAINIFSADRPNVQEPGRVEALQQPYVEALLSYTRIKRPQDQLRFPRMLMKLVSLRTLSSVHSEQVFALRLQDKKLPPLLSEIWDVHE
# [12] = biological target: T3, Calpain-2 catalytic subunit (Sus scrofa, UniProt P43367); assay: pig calpain II inhibitor potency, dose response, biochemical, fluorogenic peptide substrate (AID 1420); format: functional
# T3 sequence (P43367 whole entry): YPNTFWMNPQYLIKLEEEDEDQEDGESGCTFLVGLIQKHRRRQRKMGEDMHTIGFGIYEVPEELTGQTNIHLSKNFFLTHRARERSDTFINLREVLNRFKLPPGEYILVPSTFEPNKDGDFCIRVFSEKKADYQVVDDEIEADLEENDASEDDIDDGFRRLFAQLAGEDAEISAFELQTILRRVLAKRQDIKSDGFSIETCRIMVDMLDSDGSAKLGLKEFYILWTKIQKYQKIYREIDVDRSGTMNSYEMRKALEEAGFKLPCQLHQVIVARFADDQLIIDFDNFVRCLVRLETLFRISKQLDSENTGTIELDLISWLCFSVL
# [13] = cytotoxicity in HPDE-C7 cells, cell-based, fluorescence, HTS (AID 430); format: functional; conditions: Homo sapiens
# Phospholipase A2 = Phospholipase A2 (Homo sapiens, UniProt P04054); format: functional;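 further: confirmatory dose-response counterscreen on phospholipase A2, testing hits that came from an ultra-high-throughput screen for ATG4B inhibitors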
# Chain of Phospholipase A2 (P04054 whole entry): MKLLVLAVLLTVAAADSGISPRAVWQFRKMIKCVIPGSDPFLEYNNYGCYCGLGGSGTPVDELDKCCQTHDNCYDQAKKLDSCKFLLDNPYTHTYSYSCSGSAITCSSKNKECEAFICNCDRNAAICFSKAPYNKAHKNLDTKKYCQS
# [14] = cytotoxicity in KRAS-transformed pancreatic duct cells, primary screen, cell-based, fluorescence, HTS (AID 431); format: functional; conditions: Homo sapiens;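 further: cell line used: HPDE-C7K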
# Cysteine protease ATG4B = biological target: T4, Cysteine protease ATG4B (Homo sapiens, UniProt Q9Y4P1); format: functional;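 further: Fluorescence-based dose-response confirmation assay measuring inhibition of ATG4B activity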
# T4 sequence (Q9Y4P1 whole entry): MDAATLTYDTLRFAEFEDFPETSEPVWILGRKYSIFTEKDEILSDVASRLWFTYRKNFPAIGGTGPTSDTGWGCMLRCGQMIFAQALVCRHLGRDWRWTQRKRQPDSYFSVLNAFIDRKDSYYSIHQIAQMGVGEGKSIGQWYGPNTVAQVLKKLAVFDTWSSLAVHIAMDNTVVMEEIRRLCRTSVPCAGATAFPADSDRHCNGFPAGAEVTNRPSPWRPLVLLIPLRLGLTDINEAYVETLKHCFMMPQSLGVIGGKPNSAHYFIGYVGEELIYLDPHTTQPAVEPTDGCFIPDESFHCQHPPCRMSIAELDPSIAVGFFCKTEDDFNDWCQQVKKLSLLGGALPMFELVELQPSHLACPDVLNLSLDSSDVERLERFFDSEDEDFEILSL
# [15] = microbe, parasite or virus in culture; format: functional; conditions: Mycobacterium tuberculosis
# [16] = biological target: Heat shock protein HSP 90-alpha (Homo sapiens, UniProt P07900); format: functional, organism-based
# [17] = biological target: Peroxisome proliferator-activated receptor gamma/Nuclear receptor coactivator 2 (Homo sapiens, UniProt P37231); format: functional;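 further: agonist potency for raising coactivator recruitment to the receptor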
# [18] = biological target: Peroxisome proliferator-activated receptor gamma/Nuclear receptor coactivator 3 (Homo sapiens, UniProt P37231); format: functional;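 further: agonist potency for raising coactivator recruitment to the receptor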
# Chain of Peroxisome proliferator-activated receptor gamma/Nuclear receptor coactivator 3 (P37231 whole entry): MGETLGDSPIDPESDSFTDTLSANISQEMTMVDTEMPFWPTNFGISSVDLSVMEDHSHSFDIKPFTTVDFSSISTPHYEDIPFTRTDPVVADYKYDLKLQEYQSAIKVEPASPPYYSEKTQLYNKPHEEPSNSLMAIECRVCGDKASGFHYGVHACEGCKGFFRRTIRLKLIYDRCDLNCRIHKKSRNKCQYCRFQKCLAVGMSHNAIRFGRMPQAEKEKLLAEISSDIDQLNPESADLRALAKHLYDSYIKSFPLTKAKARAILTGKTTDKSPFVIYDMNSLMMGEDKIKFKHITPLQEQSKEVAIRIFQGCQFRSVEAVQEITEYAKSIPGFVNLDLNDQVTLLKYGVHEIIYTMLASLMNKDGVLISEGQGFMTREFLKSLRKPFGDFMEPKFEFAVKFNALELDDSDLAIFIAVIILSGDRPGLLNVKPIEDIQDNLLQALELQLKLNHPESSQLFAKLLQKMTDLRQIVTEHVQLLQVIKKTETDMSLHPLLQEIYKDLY
# Chain of Peroxisome proliferator-activated receptor gamma/Nuclear receptor coactivator 3 (Q9Y6Q9 whole entry, further chain): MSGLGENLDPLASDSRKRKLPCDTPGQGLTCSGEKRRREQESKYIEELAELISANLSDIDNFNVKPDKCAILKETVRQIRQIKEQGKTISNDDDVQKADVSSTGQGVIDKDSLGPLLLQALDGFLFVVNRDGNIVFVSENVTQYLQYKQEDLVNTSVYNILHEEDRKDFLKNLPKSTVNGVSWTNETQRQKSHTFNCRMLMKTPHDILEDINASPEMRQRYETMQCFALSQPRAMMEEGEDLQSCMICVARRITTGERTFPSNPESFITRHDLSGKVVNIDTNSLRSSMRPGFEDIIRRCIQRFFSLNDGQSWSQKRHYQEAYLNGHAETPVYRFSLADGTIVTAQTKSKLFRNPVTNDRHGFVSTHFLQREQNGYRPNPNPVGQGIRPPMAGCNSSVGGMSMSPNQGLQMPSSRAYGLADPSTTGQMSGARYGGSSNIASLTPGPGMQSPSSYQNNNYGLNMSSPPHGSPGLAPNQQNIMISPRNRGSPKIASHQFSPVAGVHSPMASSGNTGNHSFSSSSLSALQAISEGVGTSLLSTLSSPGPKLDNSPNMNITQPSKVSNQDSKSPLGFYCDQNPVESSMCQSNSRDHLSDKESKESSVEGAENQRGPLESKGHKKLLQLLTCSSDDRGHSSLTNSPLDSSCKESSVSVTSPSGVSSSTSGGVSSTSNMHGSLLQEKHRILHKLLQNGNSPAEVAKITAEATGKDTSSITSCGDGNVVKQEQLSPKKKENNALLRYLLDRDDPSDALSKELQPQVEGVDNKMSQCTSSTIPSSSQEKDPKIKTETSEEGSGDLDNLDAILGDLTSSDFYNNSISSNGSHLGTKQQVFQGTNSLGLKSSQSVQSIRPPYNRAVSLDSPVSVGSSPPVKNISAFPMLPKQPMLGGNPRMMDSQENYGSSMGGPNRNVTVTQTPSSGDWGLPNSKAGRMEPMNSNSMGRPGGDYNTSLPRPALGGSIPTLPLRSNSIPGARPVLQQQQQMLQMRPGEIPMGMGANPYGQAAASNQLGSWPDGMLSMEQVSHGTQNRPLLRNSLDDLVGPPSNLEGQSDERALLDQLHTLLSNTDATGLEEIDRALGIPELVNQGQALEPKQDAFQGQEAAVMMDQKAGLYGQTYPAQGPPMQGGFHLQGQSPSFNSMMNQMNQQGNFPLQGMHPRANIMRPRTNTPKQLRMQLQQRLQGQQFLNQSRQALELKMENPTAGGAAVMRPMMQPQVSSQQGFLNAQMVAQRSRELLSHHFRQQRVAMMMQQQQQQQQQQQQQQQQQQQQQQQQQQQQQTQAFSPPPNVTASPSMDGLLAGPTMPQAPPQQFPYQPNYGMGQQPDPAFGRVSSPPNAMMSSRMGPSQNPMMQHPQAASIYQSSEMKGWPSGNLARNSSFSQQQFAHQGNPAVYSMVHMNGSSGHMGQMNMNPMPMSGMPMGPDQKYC
# [19] = biological target: Peroxisome proliferator-activated receptor gamma/Nuclear receptor coactivator 1 (Homo sapiens, UniProt P37231); format: functional;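 further: agonist potency as compounds enhance coactivator SRC-1 recruitment to PPARgamma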
# Chain of Peroxisome proliferator-activated receptor gamma/Nuclear receptor coactivator 1 (P37231 whole entry): as the sequence (P37231 whole entry) above
# Chain of Peroxisome proliferator-activated receptor gamma/Nuclear receptor coactivator 1 (Q15788 whole entry, further chain): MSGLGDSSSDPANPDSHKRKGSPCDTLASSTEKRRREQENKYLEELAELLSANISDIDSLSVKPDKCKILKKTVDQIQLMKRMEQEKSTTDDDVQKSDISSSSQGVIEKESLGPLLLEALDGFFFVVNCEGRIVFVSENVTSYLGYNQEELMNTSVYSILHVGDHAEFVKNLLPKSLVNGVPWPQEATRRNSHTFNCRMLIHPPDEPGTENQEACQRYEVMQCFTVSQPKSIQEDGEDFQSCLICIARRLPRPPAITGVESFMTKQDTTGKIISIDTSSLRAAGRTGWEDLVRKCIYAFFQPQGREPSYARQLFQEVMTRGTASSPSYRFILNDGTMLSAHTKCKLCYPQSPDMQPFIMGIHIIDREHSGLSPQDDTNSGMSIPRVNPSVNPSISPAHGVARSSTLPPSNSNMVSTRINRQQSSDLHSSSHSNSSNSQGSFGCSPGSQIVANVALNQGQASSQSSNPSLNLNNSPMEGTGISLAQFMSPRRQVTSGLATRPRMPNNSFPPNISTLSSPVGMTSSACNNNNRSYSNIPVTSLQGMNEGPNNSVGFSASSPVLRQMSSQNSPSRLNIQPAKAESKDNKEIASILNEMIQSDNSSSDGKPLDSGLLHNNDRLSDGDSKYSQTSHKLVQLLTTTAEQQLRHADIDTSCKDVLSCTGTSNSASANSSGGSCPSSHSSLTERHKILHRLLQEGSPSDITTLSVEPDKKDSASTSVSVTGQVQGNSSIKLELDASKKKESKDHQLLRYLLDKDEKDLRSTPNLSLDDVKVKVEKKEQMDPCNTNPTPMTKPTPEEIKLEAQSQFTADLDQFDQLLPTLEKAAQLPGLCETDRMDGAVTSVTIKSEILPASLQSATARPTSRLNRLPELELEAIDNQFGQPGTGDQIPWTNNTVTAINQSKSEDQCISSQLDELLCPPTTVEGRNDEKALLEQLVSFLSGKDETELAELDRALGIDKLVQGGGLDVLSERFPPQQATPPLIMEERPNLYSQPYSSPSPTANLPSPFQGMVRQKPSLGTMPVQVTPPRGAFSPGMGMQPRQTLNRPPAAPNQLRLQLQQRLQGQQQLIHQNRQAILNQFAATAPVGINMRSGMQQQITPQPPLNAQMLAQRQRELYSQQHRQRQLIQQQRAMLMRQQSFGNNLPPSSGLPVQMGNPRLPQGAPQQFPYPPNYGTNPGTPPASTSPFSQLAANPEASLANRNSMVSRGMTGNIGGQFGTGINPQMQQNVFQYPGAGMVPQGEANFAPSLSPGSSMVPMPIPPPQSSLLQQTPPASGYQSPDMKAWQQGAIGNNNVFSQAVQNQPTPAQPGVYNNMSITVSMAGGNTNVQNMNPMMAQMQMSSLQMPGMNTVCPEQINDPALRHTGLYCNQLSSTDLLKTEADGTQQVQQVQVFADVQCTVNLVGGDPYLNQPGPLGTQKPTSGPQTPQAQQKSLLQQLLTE
# [20] = biological target: Induced myeloid leukemia cell differentiation protein Mcl-1 (Homo sapiens, UniProt Q07820); format: functional
# [21] = biological target: Eukaryotic translation initiation factor 4E (Mus musculus, UniProt P63073); assay: eIF4E–eIF4G protein interaction inhibitors, dose response, biochemical, TR-FRET (AID 855); format: functional;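 further: potency for disrupting eIF4E binding to eIF4GI seen as loss of FRET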
# [22] = A375 melanoma cell cytotoxicity, dose response, counter-screen for MITF inhibitor project, CellTiter-Glo luminescence, dry powder, set 2 (AID 624489); format: functional, cell-based; conditions: A-375;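 further: actives are compounds lowering A375 viability meaning general cytotoxicity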
# [23] = A375 melanoma cell viability loss, dose response, counter-screen for MITF inhibitor project, CellTiter-Glo luminescence, dry powder, set 4 (AID 624364); format: functional, cell-based; conditions: A-375;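 further: A375 melanoma cells are MITF independent so this is a counter screen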
# [24] = A2780 ovarian cancer cell cytotoxicity, dose response, cytotoxicity control, plate reader, dry powder samples (AID 743046); format: functional, cell-based
# [25] = NIH:OVCAR-3 ovarian cancer cell cytotoxicity, dose response, PAX8 inhibitor project, plate reader, dry powder samples (AID 743044); format: functional, cell-based
# [26] = HEp-2 cell cytotoxicity, dose response, cytotoxicity control for RSV inhibitor project, HTS (AID 2410); format: functional; conditions: human respiratory syncytial virus
# [27] = growth suppression of beta-catenin-knockout colon cells, dose response, cell-based, HCT116, human colon tumor (AID 1045); format: functional;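 further: HCT116 colon tumor cells with beta catenin knocked out; cells exposed to compound for 60 hours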
# [28] = growth suppression of PTEN-null colon cells, dose response, cell-based, HCT116 PTEN knockout (AID 1047); format: functional;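 further: HCT116 colon tumor cells with PTEN knocked out; cells exposed to compound for 60 hours before readout; potency for loss of cell viability measured by luminescence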
# [29] = biological target: T5, Low molecular weight phosphotyrosine protein phosphatase (Homo sapiens, UniProt P24666); format: functional; conditions: read-out: IC50_Mean;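 further: Dose-response confirmation assay measuring inhibition of LMPTP enzyme activity by fluorescence intensity read-out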
# T5 sequence (P24666 whole entry): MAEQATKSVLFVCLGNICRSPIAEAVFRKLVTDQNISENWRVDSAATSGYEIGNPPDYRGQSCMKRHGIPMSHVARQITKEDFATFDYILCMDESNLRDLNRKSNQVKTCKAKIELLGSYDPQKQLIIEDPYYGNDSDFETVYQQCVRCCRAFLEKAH
# Streptococcus = assay: Group A Streptococcus viability loss, dose response, counter-screen for streptokinase expression inhibitor project, luminescence, BacTiterGlo (AID 1915); format: functional, organism-based;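 further: potency for reduction of bacterial viability or growth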
# [30] = test system: Streptococcus sp. 'group A'; assay: growth inhibition of control SK(-) GAS strain, dose response, counter-screen for streptokinase expression inhibitor project, luminescence, kanamycin, BacTiterGlo, confirmation (AID 1900); format: functional, organism-based
# [31] = off-target signal loss in HeLa-CEM21 co-culture – HeLa F-luc CTL cells, cherry-picked, counter-screen for HIV-1 Env fusion inhibitor project, dose response (AID 652040); format: functional, cell-based;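 further: potency for signal decrease marking cytotoxic or nonspecific inhibition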
# [32] = ZM109 Env clade C HIV-1 fusion inhibitors, dose response, HeLa effector, CEM target cells, luciferase, cherry-pick (AID 652058); format: functional, cell-based
# [33] = inhibitors of clade B AD8 Env fusion, dose response, cell-based, cherry-pick (AID 652062); format: functional;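 further: luciferase signal from cell-cell fusion driven by HIV-1 clade B AD8 Env; potency is for inhibitors of fusion seen as a drop in luminescence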
# [34] = inhibitors of HIV Env-driven cell fusion, dose response, cherry-pick (AID 652057); format: functional, cell-based
smiles,measurement,setting,value
COc1ccc(NC(=O)Nc2ccc3c(c2)CC(=O)N([C@@H](C)CO)C[C@@H](C)[C@H](CN(C)Cc2ccncc2)O3)cc1,AC50,[1],> 52 µM (inactive)
same,AC50,[2],> 52 µM (inactive)
CC1CCN(S(=O)(=O)c2ccc3c(c2)oc(=O)n3CC(=O)NCc2ccc3c(c2)OCO3)CC1,Ki,fMet-Leu-Phe receptor,> 66.7 µM (inactive)
COc1ccccc1C#Cc1ccc2c(c1)O[C@@H](CN(C)Cc1cccnc1)[C@H](C)CN([C@H](C)CO)S2(=O)=O,AC50,[3],5.09 µM (active)
same,AC50,[4],18.3 µM (active)
same,AC50,Paired box protein Pax-8,2.04 µM (active)
same,AC50,[5],21.8 µM (active)
Oc1cc2c(cc1O)[C@@H](c1ccccc1)CNCC2,EC50,Mu-type opioid receptor,92.7 µM (inactive)
same,EC50,[6],28.2 µM (inactive)
same,CC50,[7],> 40 µM (active)
Cc1ccc(C(=O)C2C(=O)C3CCC2C3)cc1 (stereo not given),AC50,[1],> 52 µM (inactive)
same,AC50,[8],8.6 µM (active)
same,AC50,[9],4.95 µM (active)
CNc1nc(-c2c[nH]c3ccccc23)cs1,IC50,[10],> 20 µM (inactive)
ON=C(CCc1ccccc1)c1ccccc1,EC50,[11],> 67.5 µM (inactive)
c1ccc(-c2ccc(C(c3ccccc3)n3ccnc3)cc2)cc1 (stereo not given) [BIFONAZOLE],IC50,[12],14.7 µM (not active)
same,EC50,[13],> 20 µM (not active)
same,IC50,Phospholipase A2,8.89 µM (active)
same,EC50,[14],17.8 µM (active)
same,IC50,Cysteine protease ATG4B,8.5 µM (active)
same,CC50,[15],> 40 µM (active)
same,AC50,[16],1.06 µM (active)
CCOC(=O)C1CCN(Cc2ccc(C(=O)OC)cc2)CC1,Ki,fMet-Leu-Phe receptor,> 66.7 µM (inactive)
COc1ccc(Br)cc1C(=O)N/N=C/c1ccc([N+](=O)[O-])cc1,EC50,[17],> 79.4 µM (not active)
same,EC50,[18],> 79.4 µM (not active)
same,EC50,[19],> 79.4 µM (not active)
O=[N+]([O-])c1cc(CN2CCOCC2)c2cccnc2c1O,IC50,[20],2.93 µM (active)
same,IC50,[21],50 µM (inactive)
same,CC50,[7],> 40 µM (active)
COc1ccccc1-c1noc(-c2cccs2)n1,EC50,[11],> 67.5 µM (inactive)
C=CCNC1=C(NCCCN(CC)CC)C(=O)c2ccccc2C1=O,AC50,[22],17.9 µM (active)
same,AC50,[23],25.3 µM (active)
Oc1cc(CSc2ccccn2)nc(O)n1,AC50,[3],1.86 µM (active)
C[C@@H]1CCCCO[C@H](CN(C)C(=O)Cc2ccccc2)[C@@H](C)CN([C@@H](C)CO)C(=O)c2cc(NS(=O)(=O)c3ccc(Cl)cc3)ccc2O1,AC50,[24],48.6 µM (active)
same,AC50,[25],23.3 µM (active)
same,AC50,[4],39.2 µM (active)
same,AC50,Paired box protein Pax-8,7.18 µM (active)
CN(Cc1cc2ccccc2nc1O)S(C)(=O)=O,EC50,[13],> 20 µM (not active)
same,EC50,[14],> 20 µM (not active)
O=[N+]([O-])c1ccc(/C=N/Nc2nc(-c3ccccc3)c3cc(Br)ccc3n2)o1,CC50,[26],> 50 µM (active)
same,EC50,[27],29.7 µM (active)
same,IC50,[10],6.57 µM (active)
same,EC50,[28],26.1 µM (active)
same,IC50,[29],80 µM (inactive)
same,EC50,Streptococcus,0.934 µM (active)
same,EC50,[30],0.703 µM (active)
O=C(NC1=C(c2ccc(OC(F)(F)F)cc2)C(=O)c2ccccc2C1=O)c1ccccc1,AC50,[22],20.7 µM (active)
same,AC50,[23],28.5 µM (active)
Oc1cc(-c2ccccc2)nc2nc(-c3ccco3)nn12,IC50,[10],> 20 µM (inactive)
same,IC50,[29],80 µM (inactive)
COc1cc(/C=N/NS(=O)(=O)c2ccc(C)cc2)ccc1OCc1cccc(C(=O)O)c1,AC50,[31],5.81 µM (active)
same,AC50,[32],19.5 µM (active)
same,AC50,[33],6.48 µM (active)
same,AC50,Paired box protein Pax-8,13 µM (active)
same,AC50,[34],2.17 µM (active)
